≈ marks a conversion by molar mass, not a printed value.
Tests used:
[1] = test system: DT-R cells (pRRE3-luc-transfected v-ki-ras-transformed NIH3T3 cells); signal derived from Ras oncogene products; test: Inhibitory effect against cellular signaling derived from Ras oncogene products: luciferase reporter, dissociation of DT-R from DT-C activity (MAC); type: cell-based, mouse; conditions: minimal tested concentration at which luciferase activities of DT-C cells and DT-R cells dissociated
Summary of the method: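 DT-R (pRRE3-luc) and control DT-C (pGV-P) v-Ki-ras NIH3T3 cells were exposed 24 h to compound in 3-fold dilutions in DMEM/10% FCS at 37 °C, then lysed for luciferase luminescence. MAC is the lowest tested concentration at which DT-R and DT-C activities dissociate.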

[2] = test system: DT-C cells (pGV-P-transfected v-ki-ras-transformed NIH3T3 cells); test: Luciferase activity in control DT-C cells (IC50-C): non-specific transcription-inhibitory effect or cytotoxicity; type: cell-based, mouse; conditions: tested concentration nearest to 50% inhibition in DT-C cells; index of non-specific transcription inhibition or cytotoxicity
Source text: Test Example 1 Inhibitory Effect Against Cellular Signaling Derived From Ras Oncogene Products
1) Establishment of Cell Lines Used in Assay
Based on the reporter plasmid (pGV-P (Toyo Ink, Japan)), in which luciferase gene was ligated to SV40-derived minimal promoter, we constructed a plasmid designated pRRE3-luc by inserting 3 copies of chemically synthesized oligonucleotides (Sequence: CAGGATATGACTCT, derived from mouse NVL-3 (M. A. Reddy et al.(1992)Mol. Endocrinol., 6, 1051)) into upstream of the promoter. v-ki-ras-transformed NIH3T3 cells (DT cells, provided by Dr. Makoto Noda (Kyoto Univ., School of medicine)) were transfected with this plasmid by liposome-mediated transfection and transfected cell lines stably incorporated and maintained each plasmid were obtained. We named pGV-P and pRRE3-transfected cell line as DT-C and DT-R, respectively and used in the assay described below.
2) Preparation of Samples
i) All the cell lines were cultured in Dulbecco's Modified Essential Medium (DMEM: 10% Fetal Calf Serum(FCS: Hyclone, USA)) including […] kanamycin (Meiji Seika, Japan) in humidified incubator under condition of 5% CO2 at 37° C.
ii) DT-C and DT-R cells were seeded at 2500 cells/well into flat-bottom 96 well multiplate (Sumitomo bakelite) and incubated for 24 hours.
iii) Test compounds were prepared as 1 mg/ml DMSO solution.
iv) The solution of test compounds were added to the culture. Tested compounds are used at the concentration from […] to 0.51 ng/ml with by 3-fold dilution.
v) After 24 hours, the culture supernatant was completely aspirated and […] of cell-lysing solution (PGC-50 (Toyo Ink, Japan)) was added before cells were dried up. In order to the cells were lysed completely, multiwell plates were left at room temperature for 10 to 30 min. The plates were wrapped up and stored at −20° C. till the day of measurement.
3) Measurement of Samples
i) Melt the samples by putting 96 well multiplate at 37° C. and add 90 μl/well 25 mM Tris (pH 7.5).
ii) Transfer 50 μl of the sample (110 μl) to the 96 well microplate for measurement (Microlite 1 (Dynatech)).
iii) Measure the samples by the luminometer, LUMINOUS CT9000D (Dia-Yatron, Japan). We used Pickagene luminescence kit PGL2000 or LT2.0 (Toyo Ink, Japan) as substrates for luminescence measurement (50 μl/well).
4) Judgment of the Results
i) The luciferase activity of DT-C cells and DT-R cells were plotted in the graph where the relative activity and the compound concentration were expressed as Y-axis and X-axis, respectively. We judged by the degree of dissociation between the activities of DT-C cells and DT-R cells as an index.
ii) Concretely, efficacy of the compound was expressed by two values described below.
b) Among the points of concentration tested, the concentration which is the nearest to 50% inhibition concentration at DT-C cells (IC50-C), was shown as an index of non-specific transcription-inhibitory effect or of cytotoxicity. In case of positive compounds, 50% inhibition concentration above the area of active concentration in DT-C cells was expressed as IC50-C.

human colon cancer HT29 = test: In vitro cell growth inhibition test, MTT assay; type: cell-based; conditions: MTT assay 4 days after compound addition
Summary of the method: (§1)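 Growth inhibition was measured by MTT assay across a panel of human tumour cell lines that also included pancreatic cancer PANC-1.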

[3] = test system: human squamous lung cancer Ma44; test: In vitro cell growth inhibition test, MTT assay; type: cell-based; conditions: MTT assay 4 days after compound addition
Summary of the method: as §1

[4] = test system: human pancreas cancer PANC-1; test: In vitro cell growth inhibition test, MTT assay; type: cell-based; conditions: MTT assay 4 days after compound addition
Summary of the method: as §1

[5] = test system: human squamous lung cancer RERF-RC-AI; test: In vitro cell growth inhibition test, MTT assay; type: cell-based; conditions: MTT assay 4 days after compound addition
Summary of the method: as §1

[6] = test system: human lung adenocarcinoma A549; test: In vitro cell growth inhibition test, MTT assay; type: cell-based; conditions: MTT assay 4 days after compound addition
Summary of the method: as §1

Row | SMILES | MAC (Minimal Active Concentration) [1] | IC50-C [2] | IC50, HT29 (human colon cancer HT29) | IC50, Ma44 [3] | IC50, PANC-1 [4] | IC50, RERF-LC-AI [5] | IC50, A549 [6]
1 | CCNC(=Nc1ncncc1CSc1nnc(-c2ccccc2N)o1)NCC [Compound A-33] | 0.0137 µg/mL | >10 µg/mL | 0.0071 µg/mL (≈ 0.0178 µM) | 0.0087 µg/mL (≈ 0.0218 µM) | 0.0076 µg/mL (≈ 0.0191 µM) | 0.004 µg/mL (≈ 0.01 µM) | 0.012 µg/mL (≈ 0.0301 µM)
2 | CCCNC(=Nc1nc(C)ncc1CSc1nnc(-c2ccccc2N)o1)NCC [Compound A-36] | 0.0412 µg/mL | 3.33 µg/mL (≈ 7.81 µM) | 0.015 µg/mL (≈ 0.0352 µM) | 0.026 µg/mL (≈ 0.061 µM) | 0.014 µg/mL (≈ 0.0328 µM) | 0.0072 µg/mL (≈ 0.0169 µM) | 
3 | CCNC(=Nc1nc(CC)ncc1CSc1nnc(-c2ccccc2N)o1)NCC [Compound A-37] | 0.0412 µg/mL | 3.33 µg/mL (≈ 7.81 µM) | 0.03 µg/mL (≈ 0.0703 µM) | 0.24 µg/mL (≈ 0.563 µM) | 0.025 µg/mL (≈ 0.0586 µM) | 0.021 µg/mL (≈ 0.0492 µM) | 
4 | CCNC(=Nc1nc(C)ncc1CSc1nnc(-c2ccc(Cl)cc2N)o1)NCC [Compound A-44] | <0.000508 µg/mL | 3.33 µg/mL (≈ 7.45 µM) | 0.0061 µg/mL (≈ 0.0136 µM) | 0.018 µg/mL (≈ 0.0403 µM) | 0.16 µg/mL (≈ 0.358 µM) | 0.0061 µg/mL (≈ 0.0136 µM) | 
5 | CCNC(=Nc1nc(C)ncc1CSc1nnc(-c2ccc(Cl)cc2NC(C)=O)o1)NCC [Compound A-61] | <0.000508 µg/mL | >10 µg/mL |  | 0.016 µg/mL (≈ 0.0327 µM) | 0.0063 µg/mL (≈ 0.0129 µM) | 0.0041 µg/mL (≈ 0.00838 µM) | 
6 | CCNC(=Nc1nc(C)ncc1CSc1nnc(-c2ccc(C)cc2N)o1)NCC [Compound A-63] | 0.0412 µg/mL | 3.33 µg/mL (≈ 7.81 µM) |  | 0.053 µg/mL (≈ 0.124 µM) | 0.0087 µg/mL (≈ 0.0204 µM) | 0.006 µg/mL (≈ 0.0141 µM) | 
7 | CCNC(=Nc1nc(C)ncc1CSc1nnc(-c2ccc(OC)cc2)o1)NCC [Compound A-73] | 0.123 µg/mL | >10 µg/mL | 0.016 µg/mL (≈ 0.0374 µM) | 0.048 µg/mL (≈ 0.112 µM) | 0.029 µg/mL (≈ 0.0678 µM) | 0.012 µg/mL (≈ 0.0281 µM) | 0.052 µg/mL (≈ 0.122 µM)
8 | CCNC(=Nc1nc(C)ncc1CSc1nnc(-c2ccc([N+](=O)[O-])cc2N)o1)NCC [Compound A-75] | <0.000508 µg/mL | >10 µg/mL | 0.0038 µg/mL (≈ 0.00831 µM) | 0.0058 µg/mL (≈ 0.0127 µM) | 0.0065 µg/mL (≈ 0.0142 µM) | 0.004 µg/mL (≈ 0.00874 µM) | 0.0087 µg/mL (≈ 0.019 µM)
9 | CCNC(=Nc1nc(C)ncc1CSc1nnc(-c2ccc(Cl)cc2Cl)o1)NCC [Compound A-80] | 0.370 µg/mL | 3.33 µg/mL (≈ 7.14 µM) | 0.024 µg/mL (≈ 0.0515 µM) | 0.062 µg/mL (≈ 0.133 µM) | 0.05 µg/mL (≈ 0.107 µM) | 0.018 µg/mL (≈ 0.0386 µM) | 0.1 µg/mL (≈ 0.214 µM)
10 | CCNC(=Nc1nc(C)ncc1CSc1nnc(-c2ccc(N)cc2F)o1)NCC [Compound A-81] | 0.0412 µg/mL | >10 µg/mL | 0.007 µg/mL (≈ 0.0163 µM) | 0.032 µg/mL (≈ 0.0743 µM) | 0.016 µg/mL (≈ 0.0372 µM) | 0.009 µg/mL (≈ 0.0209 µM) | 0.023 µg/mL (≈ 0.0534 µM)
11 | CCNC(=Nc1nc(C)ncc1CSc1nnc(-c2ccc(O)cc2)o1)NCC [Compound A-88] | 0.123 µg/mL | >10 µg/mL | 0.043 µg/mL (≈ 0.104 µM) | 0.097 µg/mL (≈ 0.235 µM) | 0.036 µg/mL (≈ 0.0871 µM) | 0.02 µg/mL (≈ 0.0484 µM) | 0.14 µg/mL (≈ 0.339 µM)
12 | CCNC(=Nc1nc(C)ncc1CSc1nnc(-c2ccc(C(F)(F)F)cc2)o1)NCC [Compound A-106] | 0.370 µg/mL | >10 µg/mL | 0.043 µg/mL (≈ 0.0924 µM) | 0.086 µg/mL (≈ 0.185 µM) | 0.056 µg/mL (≈ 0.12 µM) |  | 0.082 µg/mL (≈ 0.176 µM)
13 | CCNC(=Nc1nc(C)ncc1CSc1nnc(-c2ccc(Br)cc2)o1)NCC [Compound A-108] | 0.123 µg/mL | >10 µg/mL | 0.022 µg/mL (≈ 0.0462 µM) | 0.029 µg/mL (≈ 0.0609 µM) | 0.027 µg/mL (≈ 0.0567 µM) |  | 0.027 µg/mL (≈ 0.0567 µM)
14 | CCNC(=Nc1nc(CC)ncc1CSc1nnc(-c2ccc(N)cc2)o1)NCC [Compound A-154] | 0.0412 µg/mL | >10 µg/mL | 0.012 µg/mL (≈ 0.0281 µM) | 0.04 µg/mL (≈ 0.0938 µM) | 0.018 µg/mL (≈ 0.0422 µM) | 0.008 µg/mL (≈ 0.0188 µM) | 
15 | CCCNC(=Nc1ncncc1CSc1nnc(-c2ccc([N+](=O)[O-])cc2)o1)NCCC [Compound A-155] | 0.00457 µg/mL | 3.33 µg/mL (≈ 7.29 µM) | 0.08 µg/mL (≈ 0.175 µM) | 0.009 µg/mL (≈ 0.0197 µM) | 0.009 µg/mL (≈ 0.0197 µM) | 0.006 µg/mL (≈ 0.0131 µM) | 
16 | CCCNC(N)=Nc1nc(C)ncc1CSc1nnc(-c2ccc(N)cc2)o1 [Compound A-157] | 0.0137 µg/mL | >10 µg/mL | 0.008 µg/mL (≈ 0.0201 µM) | 0.044 µg/mL (≈ 0.11 µM) | 0.015 µg/mL (≈ 0.0376 µM) | 0.005 µg/mL (≈ 0.0125 µM) | 
17 | CCCNC(N)=Nc1nc(C)ncc1CSc1nnc(-c2ccc([N+](=O)[O-])cc2)o1 [Compound A-158] | 0.0412 µg/mL | >10 µg/mL | 0.025 µg/mL (≈ 0.0583 µM) | 0.032 µg/mL (≈ 0.0747 µM) | 0.03 µg/mL (≈ 0.07 µM) | 0.007 µg/mL (≈ 0.0163 µM) | 

— US6420367B1, “Pyrimidine derivatives exhibiting antitumor activity” (Shionogo & Co., Ltd., priority 1998, dated 2002)
